Columns and labels:
[1] = target: nucleotide binding site (NBS); conditions: read-out: previously reported Kd for IBA/NBS interactions; cited from earlier work
[2] = system: CD20 negative myeloma cell lines, U266, H929, and MM.1S; experiment: CD20 antigen detection flow cytometry assay; type: cell-based; conditions: conjugate 200 nM, photocrosslinked at 1 J/cm^2; U266, H929, MM.1S
Method: IM9, U266, H929, and MM.1S cell lines were cultured in RPMI 1640 media containing 10% FBS, 2 mM L-glutamine, 100 U/mL penicillin, and 100 μg/mL streptomycin. […] IBA-FITC was photocrosslinked to Rituximab at the indicated UV energies. All cell lines were used at a density of 0.5×10^6 cells/mL in blocking buffer (1.5% BSA in PBS pH 7.4) and initially incubated for 30 min on ice. […] Samples were washed three times and analyzed on a Guava easyCyte 8HT flow cytometer.

Row | Compound | Kd [1] | binding to CD20 negative cell lines [2]
1 | O=C(O)CCCc1c[nH]c2ccccc12 [IBA, indole-3-butyric acid] | 1 to 8 µM | 
2 | Rituximab-IBA-FITC conjugate |  | negligible binding
